Source: patent US20250011331A1 (Nimbus Saturn, Inc., priority 2021, published 2025)
pIC50: −log10 of the molar value.

biological target: T1, HPK1 (Homo sapiens, UniProt Q92918); assay: HPK1 biochemical enzyme assay (microfluidic mobility shift); conditions: 1.5 nM HPK1 (Invitrogen), 1 mM ATP, 30 min preincubation, 60 min at RT, Caliper EZ Reader
T1 construct: purchased Invitrogen
Procedure: HPK1 biochemical enzyme assay: HPK1 enzyme inhibition was measured using a microfluidic mobility shift assay. Reactions were performed in a 384-well plate, containing 1.5 nM HPK1 (Invitrogen), in assay buffer (Cama Biosciences; pH 7.4). Test compounds were titrated in ten point curves (top final assay concentration 3 μM), and preincubated with enzyme/substrate mix for 30 min prior to initiation of the reaction by addition of ATP (1 mM final concentration) and substrate (1 μM final concentration; Carna Biosciences) diluted in assay buffer supplemented by MgCl2 (final assay concentration of 5 mM). Following 60 min incubation at RT, the reaction was terminated by addition of 60 μl/well termination buffer (Carna Biosciences) and signal determination using a Caliper EZ Reader (Perkin Elmer, UK).

T1 sequence (Q92918 whole entry): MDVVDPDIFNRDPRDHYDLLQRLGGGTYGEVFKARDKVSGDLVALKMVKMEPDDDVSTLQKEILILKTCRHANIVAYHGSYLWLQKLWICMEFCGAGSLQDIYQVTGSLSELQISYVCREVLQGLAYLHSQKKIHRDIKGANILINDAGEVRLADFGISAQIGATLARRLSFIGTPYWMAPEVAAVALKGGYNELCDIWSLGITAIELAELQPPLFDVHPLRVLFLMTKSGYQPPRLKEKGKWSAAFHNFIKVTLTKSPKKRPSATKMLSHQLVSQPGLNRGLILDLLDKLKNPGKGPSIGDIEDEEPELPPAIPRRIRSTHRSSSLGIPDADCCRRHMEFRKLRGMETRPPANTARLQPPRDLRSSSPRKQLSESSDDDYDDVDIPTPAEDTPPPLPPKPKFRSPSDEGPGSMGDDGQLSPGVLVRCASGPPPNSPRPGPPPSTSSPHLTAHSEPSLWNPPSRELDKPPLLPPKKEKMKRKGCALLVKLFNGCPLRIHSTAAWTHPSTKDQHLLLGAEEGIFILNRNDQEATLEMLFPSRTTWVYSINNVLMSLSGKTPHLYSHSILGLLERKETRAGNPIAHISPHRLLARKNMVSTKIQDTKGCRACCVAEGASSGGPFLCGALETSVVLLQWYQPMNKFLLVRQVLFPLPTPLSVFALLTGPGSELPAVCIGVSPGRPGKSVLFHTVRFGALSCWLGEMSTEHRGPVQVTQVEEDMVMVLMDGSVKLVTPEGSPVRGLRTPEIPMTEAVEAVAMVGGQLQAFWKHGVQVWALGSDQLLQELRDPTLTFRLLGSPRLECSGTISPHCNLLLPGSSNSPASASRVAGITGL

Row | pIC50 | Compound
1 | ≥ 7.00 | C[C@H](OC1CCOCC1)c1ccc(Nc2ccc(-c3cnc4cc(F)ccn34)c3c2C(=O)NC3)nc1CN(C)C (single isomer, unassigned) [Compound I-26]
2 | 6.00 to 7.00 | C[C@H](c1nc(Nc2ccc(-c3cnc4cc(F)ccn34)c3c2C(=O)NC3)ccc1C1CCOCC1)N(C)C [Compound I-7, (R)-7-((6-(1-(dimethylamino)ethyl)-5-(tetrahydro-2H-pyran-4-yl)pyridin-2-yl)amino)-4-(7-fluoroimidazo[1,2-a]pyridin-3-yl)isoindolin-1-one]
3 | ≥ 7.00 | CN(C)Cc1nc(Nc2ccc(-c3cnc4cc(F)ccn34)c3c2C(=O)NC3)ccc1[C@@H]1CC[C@H](O)C1 [Compound I-2, 7-((6-((dimethylamino)methyl)-5-((1R,3S)-3-hydroxycyclopentyl)pyridin-2-yl)amino)-4-(7-fluoroimidazo[1,2-a]pyridin-3-yl)isoindolin-1-one]
4 | ≥ 7.00 | CCN1CCC(c2ccc(Nc3ccc(-c4cnc5cc(F)ccn45)c4c3C(=O)NC4)nc2CN(C)C)CC1=O (stereo not drawn) [Compound I-48, 7-[[6-[(dimethylamino)methyl]-5-(1-ethyl-2-oxo-4-piperidyl)-2-pyridyl]amino]-4-(7-fluoroimidazo[1,2-a]pyridin-3-yl)isoindolin-1-one]
5 | ≥ 7.00 | CO[C@H]1C[C@H](Oc2ccc(Nc3ccc(-c4cnc5cc(F)ccn45)c4c3C(=O)NC4)nc2CN(C)C)C1 [Compound I-19]
6 | ≥ 7.00 | C[C@@H](OC1CCOCC1)c1ccc(Nc2ccc(-c3cnc4cc(F)ccn34)c3c2C(=O)NC3)nc1CN(C)C (single isomer, unassigned) [Compound I-24]
7 | ≥ 7.00 | CN(C)Cc1nc(Nc2ccc(-c3cnc4cc(F)ccn34)c3c2C(=O)NC3)ccc1OC1CC2(COC2)C1 [Compound I-40, 7-((5-((2-oxaspiro[3.3]heptan-6-yl)oxy)-6-((dimethylamino)methyl)pyridin-2-yl)amino)-4-(7-fluoroimidazo[1,2-a]pyridin-3-yl)isoindolin-1-one]
8 | ≥ 7.00 | CO[C@]1(c2ccc(Nc3ccc(-c4cnc5cc(F)ccn45)c4c3C(=O)NC4)nc2CN(C)C)CCOC1 (single isomer, unassigned) [Compound I-21]
9 | ≥ 7.00 | C[C@@H](c1ccc(Nc2ccc(-c3cnc4cnccn34)c3c2C(=O)NC3)nc1CN(C)C)C1CCOCC1 [Compound I-36]
10 | ≥ 7.00 | CN(C)CCc1nc(Nc2cnc(-c3ccnc4c3ccn4C)c3c2C(=O)NC3)ccc1C1CCOCC1 [Compound I-13, 7-((6-(2-(dimethylamino)ethyl)-5-(tetrahydro-2H-pyran-4-yl)pyridin-2-yl)amino)-4-(1-methyl-1H-pyrrolo[2,3-b]pyridin-4-yl)-2,3-dihydro-1H-pyrrolo[3,4-c]pyridin-1-one]
11 | 6.00 to 7.00 | CN1CCN(C(=O)[C@@H]2CCOC2)c2ccc(Nc3ccc(-c4cnc5cc(F)ccn45)c4c3C(=O)NC4)nc2C1 (single isomer, unassigned) [Compound I-17]
12 | ≥ 7.00 | Cc1cncc2ncc(-c3ccc(Nc4ccc([C@@H]5CCOC5)c(CN(C)C)n4)c4c3CNC4=O)n12 (single isomer, unassigned) [Compound I-27]
13 | ≥ 7.00 | CC(Oc1ccc(Nc2ccc(-c3cnc4cnccn34)c3c2C(=O)NC3)nc1CN(C)C)C1CC(F)(F)C1 (stereo not drawn) [Compound I-49, 7-[[5-[1-(3,3-difluorocyclobutyl)ethoxy]-6-[(dimethylamino)methyl]-2-pyridyl]amino]-4-imidazo[1,2-a]pyrazin-3-yl-isoindolin-1-one]
14 | ≥ 7.00 | CN(C)Cc1nc(Nc2ccc(-c3cnc4cc(F)ccn34)c3c2C(=O)NC3)ccc1[C@H]1COCCO1 (single isomer, unassigned) [Compound I-14]
15 | ≥ 7.00 | CN1CC[C@H](c2ccc(Nc3ccc(-c4cnc5cc(F)ccn45)c4c3C(=O)NC4)nc2)C1=O [Compound I-53, (R)-4-(7-fluoroimidazo[1,2-a]pyridin-3-yl)-7-((5-(1-methyl-2-oxopyrrolidin-3-yl)pyridin-2-yl)amino)isoindolin-1-one]
